Results on three compounds are retold here after patent US20060035848A1, “Broad-spectrum inhibitor of viruses in the Flaviviridae family” (ZymeTx, Inc., priority 2004, published 2006).

Series [1] relates to WNV. In words: Virus yield reduction (VYR) assay, West Nile virus. It counts as cell-based. The following applies: for EC90: West Nile virus, read-out: Virus yield reduction assay EC90.
The nature of series [2]: Cytotoxicity in toxicity control wells of the WNV tests. Type of series: cell-based. The following applies: African green monkey, Vero 76 cells (kidney), uninfected toxicity control wells.
Series [3] concerns West Nile virus New York Isolate. In words: CPE inhibition assay against West Nile virus New York isolate in Vero cells. It counts as cell-based.
In series [4] the test system is West Nile Virus ATCC VR-82 (strain B956). Description: CPE inhibition assay against West Nile virus ATCC VR-82 (visual and neutral red reading). It counts as cell-based. The following applies: Vero.
In series [5] the test system is WNV. In words: Inhibition of CPE assay at time points after initiation (Table 2). It counts as cell-based, West Nile virus. The settings on record: for EC50: West Nile virus, 144 h, read-out: Inhibition of CPE assay EC50.
A short description of series [6]: in vitro. The settings on record: African green monkey.
Series [7] is described as follows: in vitro. The settings on record: bovine.
Series [8] relates to Yellow fever virus (YFV), 17D strain. In words: microbe, parasite or virus in culture. Type of series: cell-based. The settings on record: Vero.
The test system of series [9] is WNV. The settings on record: Morrey et al., 2002; cited from earlier work.
For series [10], the system named is Banzi virus (BV), H 336 strain. Description: microbe, parasite or virus in culture. Type of series: cell-based. The following applies: Vero.
A short description of series [11]: in vitro. The following applies: African green monkey. The source holds these as a separate data set.
Series [12] concerns Bovine viral diarrhea virus (BVDV), TN131 strain. Description: microbe, parasite or virus in culture. Type of series: cell-based. The following applies: Bovine viral diarrhea virus isolates and strains.
The test system of another series is GAPDH mRNA. Description: Cytotoxicity by GAPDH mRNA in HCV replicon-containing cells. The settings on record: FIG. 1B.
Setting [13] is: ATCC VR-82 columns, NR (Neutral red).
[14] abbreviates: New York Isolate columns, NR (Neutral red).
Setting [15] is: New York Isolate columns, Visual.
Setting [16] is: 144 h, New York Isolate, Visual, Vero cells, 6 days post-virus exposure.
Where [17] appears, read: New York Isolate, NR (Neutral red), Vero cells.

In brackets after ≈: the same amount, converted by molar mass. Read-outs that look alike come from different tables or passages of the source.

Regarding `O=c1cnn([C@@H]2O[C@H](CO)[C@@H](O)[C@H]2O)c(=O)[nH]1` [6-aza-U, 6-azauridine, reference compound], the values for the EC90 with WNV [1] (48 h) and with WNV [1] (144 h) were 1.6 µg/mL (≈ 6.53 µM) and 431 µg/mL (≈ 1760 µM), respectively. Moreover, in the series with WNV [1] (day 6, compared to no addition of fresh compound), the “Effect of addition of fresh compound every 2 days on VYR” value was “did not improve”. For the same compound, the CC50 at 6 days in series [2] (setting [13]) was more than 100 µg/mL; in [2] (ATCC VR-82 columns, Visual) it was 85 µg/mL (≈ 347 µM); in [2] (setting [14]) it was more than 100 µg/mL; in [2] (setting [15]), 85 µg/mL (≈ 347 µM). Moreover, the EC50 in series [3] (setting [16]) is 0.9 µg/mL (≈ 3.67 µM); in [3] (setting [17]), 1.6 µg/mL (≈ 6.53 µM); in series [4], 5 µg/mL (≈ 20.4 µM); in series [4] (144 h), 22 µg/mL (≈ 89.7 µM); in the series with WNV [5] it was 3.1 µg/mL (≈ 12.6 µM). This compound also registered a CPE observed in the series on WNV [5] (8 days post-virus initiation, cells treated with any concentration) of 100%.
Regarding `NC(=O)c1ncn([C@@H]2O[C@H](CO)[C@@H](O)[C@H]2O)n1` [Ribavirin, reference compound], the CC50 in the series “in vitro [6]”, in the series “in vitro [7]” and in “in vitro [11]” was more than 100 µg/mL throughout. Moreover, the concentration for a half-maximal effect (EC50) in series [8] came out at 32 µg/mL (≈ 131 µM); in series [10], 60 µg/mL (≈ 246 µM); in series [12], 5 µg/mL (≈ 20.5 µM). The “activity against WNV in tissue culture” value in the series on WNV [9] was “poor activity”.
As for `Nc1nc(=O)n2ccn([C@@H]3O[C@H](CO)[C@@H](O)[C@H]3O)c2n1` [ZX-2401, 2-amino-8-(β-D-ribofuranosyl) imidazo [1,2-a]-s-triazine-4-one], the EC90 was 3.3 µg/mL (≈ 11.7 µM) in the series with WNV [1] (48 h) and 40 µg/mL (≈ 141 µM) in the series with WNV [1] (144 h). Also, the CC50 in “in vitro [6]”, in “in vitro [7]” and in the series “in vitro [11]” was more than 100 µg/mL each time. In addition, the CC50 at 6 days was more than 100 µg/mL in [2] (setting [13]); more than 100 µg/mL in series [2] (ATCC VR-82 columns, Visual); more than 100 µg/mL in series [2] (setting [14]); more than 100 µg/mL in series [2] (setting [15]). Further, the EC50 in series [3] (setting [16]) was found to be 9.5 µg/mL (≈ 33.5 µM); in series [3] (MOI 1.6 × 10^−3, New York strain in Vero cells), 20 µg/mL (≈ 70.6 µM); in series [3] (MOI 1.6 × 10^−4, New York strain in Vero cells), 12 µg/mL (≈ 42.4 µM); in series [3] (MOI 5 × 10^−4, New York strain in Vero cells), 15 µg/mL (≈ 53 µM); in [3] (MOI 5 × 10^−5 (5 CCID50), New York strain in Vero cells), 15 µg/mL (≈ 53 µM); in series [3] (setting [17]), 8 µg/mL (≈ 28.2 µM). Also, the EC50 in series [8] was 10 µg/mL (≈ 35.3 µM); in series [10] it was 5 µg/mL (≈ 17.7 µM); in series [12] it was 0.6 µg/mL (≈ 2.12 µM); in series [4], 3 µg/mL (≈ 10.6 µM); in [4] (144 h), less than 4.6 µg/mL; in the series with WNV [5], 15 µg/mL (≈ 53 µM). In addition, in the series on Vero cells, the “Toxicity by visual inspection of treated uninfected cultures” value is “No toxicity”. Also, the “toxicity as measured by GAPDH mRNA levels” value in the series on GAPDH mRNA is “no toxicity”.
